Measured values reported in paper PMC2074523, “Bioavailability and pharmacokinetics of oral topotecan: a new topoisomerase I inhibitor” (British Journal of Cancer, 1996).
Values joined by “and” are separate entries in the source; they are usually repeats but may differ in a detail not shown here. Identical values can stand only once. Counter-ions that a name gives are not always drawn.

Assays:
[1] = clinical; conditions: for Vd: 1.5 mg m-2, volume of distribution at steady state (Vd,ss)
Description: British Journal of Cancer (1996) 73, 1268-1271 ff* (C) 1996 Stockton Press All rights reserved 0007-0920/96 $12.00 Bioavailability and pharmacokinetics of oral topotecan: a new topoisomerase I inhibitor JHM Schellens', GJ Creemers', JH Beijnen2, H Rosing2, M de Boer-Dennert', M McDonald3, B Davies4 and J Verweij' 'Department of Medical Oncology, Rotterdam Cancer Institute, 3075 EA Rotterdam, The Netherlands; 2Slotervaart Hospital, Amsterdam, The Netherlands; 3SmithKline & Beecham, UK; 4SmithKline & Beecham, USA. […] The oral dose of 1.5 mg m 2 was administered as a drinking solution of 200 ml on day 1. The i.v. dose of 1.5 mg m-2 was administered as a 30 min continuous infusion on day 2. The bioavailability was calculated as the ratio of the oral to i.v. area under the curve (AUC) calculated up to the last measured time point. […] Keywords: topotecan; bioavailability; topoisomerase I inhibitor Topotecan (SKF 104864) [(S)-9-dimethylaminomethyl-10- hydroxycamptothecin hydrochloride] is a semisynthetic water-soluble analogue of camptothecin (Hsiang and Liu, 1988). Like camptothecin, topotecan is a specific inhibitor of topoisomerase I (Hsiang and Liu, 1988). Topotecan incorporates a stable basic side-chain at the 9-position of the A-ring, which provides water solubility at acid pH. Topotecan is converted to its lactone ring-opened hydrolysis product (hydroxy acid), which reversible pathway is strongly pH dependent. The biological activity of the hydroxy acid has not been fully elucidated (Kingsbury et al., 1991). […] In the present study the bioavailability and pharmacoki- netics of oral topotecan are explored in patients with solid tumours with the aim of providing a basis for further development of clinical studies using chronic oral topotecan. […] The performance status had to be < 2 on the WHO scale and life expectancy >3 months. The minimum age was 18 and maximum age 75 years. The haemoglobulin had to be >6.0 mmol 1 -1 (9 g dl-'), WBC? 3500 ul -', granulocytes , 1000 l-d and platelets >100 000 jil-'. The serum creatinine had to be < 140 imol 1-1 (1.6 mg dl-'), the serum bilirubin <26 µmol 1` (1.5 mg dl-') and alkaline phospha- tase and transaminases <2 times the upper normal limit if liver metastases were absent or -5 times the upper normal limit if liver metastases were present. Topotecan was administered orally and intravenously at a dose of 1.5 mg m-2. Topotecan as supplied for intravenous infusion was diluted for oral dosage. […] The dose was placed in a beaker containing 100 ml of 5% dextrose injection solution. On day 1, patients were asked to drink the entire contents. Subsequently, an additional 100 ml of 5% dextrose injection solution was added to the beaker and taken by the patient. On day 2 topotecan was administered at the same dose as a continuous 30 min intravenous infusion.

[2] = Acute tolerability of oral drinking solution and i.v. infusion of topotecan in patients; format: in vivo, human
Description: British Journal of Cancer (1996) 73, 1268-1271 ff* (C) 1996 Stockton Press All rights reserved 0007-0920/96 $12.00 Bioavailability and pharmacokinetics of oral topotecan: a new topoisomerase I inhibitor JHM Schellens', GJ Creemers', JH Beijnen2, H Rosing2, M de Boer-Dennert', M McDonald3, B Davies4 and J Verweij' 'Department of Medical Oncology, Rotterdam Cancer Institute, 3075 EA Rotterdam, The Netherlands; 2Slotervaart Hospital, Amsterdam, The Netherlands; 3SmithKline & Beecham, UK; 4SmithKline & Beecham, USA. […] The oral dose of 1.5 mg m 2 was administered as a drinking solution of 200 ml on day 1. The i.v. dose of 1.5 mg m-2 was administered as a 30 min continuous infusion on day 2. The bioavailability was calculated as the ratio of the oral to i.v. area under the curve (AUC) calculated up to the last measured time point. […] Keywords: topotecan; bioavailability; topoisomerase I inhibitor Topotecan (SKF 104864) [(S)-9-dimethylaminomethyl-10- hydroxycamptothecin hydrochloride] is a semisynthetic water-soluble analogue of camptothecin (Hsiang and Liu, 1988). Like camptothecin, topotecan is a specific inhibitor of topoisomerase I (Hsiang and Liu, 1988). Topotecan incorporates a stable basic side-chain at the 9-position of the A-ring, which provides water solubility at acid pH. […]

[3] = design: method as in unpublished data; conditions: mean (s.d. 16.3), ref unpublished data; cited from earlier work
[4] = Table I, patients 1-12 in order, oral 1.5 mg m-2

## CC[C@@](O)(C(=O)O)c1cc2n(c(=O)c1CO)Cc1cc3c(CN(C)C)c(O)ccc3nc1-2 [hydroxy acid]
[1]; human, in vivo
  plasma concentration-time curves of the hydroxy acid compared with topotecan: higher than those of topotecan
  ratio of the AUC(t) of the hydroxy acid after oral and i.v. administration: 0.38 ± 0.12
[1]; human, in vivo, iv
  Cmax of the hydroxy acid: 18.97 ± 2.44 ng/mL
  terminal t1/2 of the hydroxy acid: 3.22 ± 0.73 h
[1]; human, in vivo, iv, 1.5 mg
  AUC(t) of hydroxy acid, i.v.: 73.25 ng/h/mL
[1]; human, in vivo, po
  Cmax of the hydroxy acid: 7.50 ± 2.57 ng/mL
  Cmax of the hydroxy acid, range: 4.66 + 12.32 ng ml-1
  plasma concentration on day 2, before administration of the second dose: undetectable
  terminal t1/2 of the hydroxy acid: 2.82 ± 0.85 h
[1]; human, in vivo, po, 1.5 mg
  AUC(t) of hydroxy acid, oral: 31.41 ng/h/mL

## CC[C@@]1(O)C(=O)OCc2c1cc1n(c2=O)Cc2cc3c(CN(C)C)c(O)ccc3nc2-1 [topotecan, (S)-9-dimethylaminomethyl-10-hydroxycamptothecin hydrochloride]
[2]; i.v. and oral 1.5 mg m-2, 12 patients
  acute side-effects: Neither i.v. nor oral administration was associated with any significant acute side-effect
[2]; oral 1.5 mg m-2 in 200 ml, 12 patients
  tolerability of the oral drinking solution: well tolerated
[3]
  bioavailability after oral administration in dogs: 35.7%
[1]; Table I, patients 1-12 in order, i.v. 1.5 mg m-2
  Cmax, i.v. (individual patients): 41.08 ng/mL and 35.92 ng/mL and 43.86 ng/mL and 33.40 ng/mL and 47.18 ng/mL and 40.35 ng/mL and 41.41 ng/mL and 41.21 ng/mL and 42.11 ng/mL and 25.35 ng/mL and 19.57 ng/mL
[1]; [4]
  Cmax, oral (individual patients): 5.93 ng/mL and 5.16 ng/mL and 5.45 ng/mL and 5.71 ng/mL and 7.14 ng/mL and 4.71 ng/mL and 5.08 ng/mL and 6.48 ng/mL and 6.67 ng/mL and 5.38 ng/mL and 6.93 ng/mL
  Tmax, oral (individual patients): 0.5 h (3×) and 1.03 h (2×) and 0.33 h and 1.13 h and 0.52 h and 0.55 h and 2.5 h and 1.5 h and 1.0 h
[1]; Table I, patients 1-12 in order, ratio AUC(t) oral/i.v.
  F (individual patients): 21% and 30% (2×) and 25% and 38% and 23% (2×) and 22% and 45% and 34% and 35% and 36%
[1]; day after oral dose 1.5 mg m-2, LLQ 0.1 ng ml-1
  plasma concentration on day 2, before administration of the second dose: undetectable
[1]; human, in vivo, iv, 1.5 mg, i.v. (individual patients)
  Cmax: 41.8 ng/mL
[1]; human, plasma, iv, 1.5 mg
  clearance: 535 to 1070 mL/min
[1]; human, plasma, iv, 1.5 mg m-2
  clearance: 824 ± 154 mL/min
[1]; human, plasma, iv, 1.5 mg m-2, half-life for the initial decline of the plasma concentration-time curve (t1/2 alpha), mean ± s.d., ten patients fitted with a biexponential model
  half-life: 0.186 h
[1]; human, plasma, iv, 1.5 mg m-2, t1/2 beta, after i.v., the patient with the highest bioavailability of 45%
  half-life: 1.8 h
[1]; human, plasma, iv, 1.5 mg m-2, t1/2 beta, mean ± s.d., n=12
  half-life: 2.4 h
[1]; human, plasma, iv, 1.5 mg m-2, t1/2 beta, range, n=12
  half-life: 1.72 to 2.93 h
[1]; human, plasma, iv, mean ± s.d., n=12
  Vd: 128 L
[1]; human, plasma, iv, range, n=12
  Vd: 86 to 231 L
[1]; human, plasma, iv, 1.5 mg, mean of 12 patients, i.v. 1.5 mg m-2
  Cmax: 37.8 ng/mL
[1]; human, plasma, po, 1.5 mg m-2, Tmax, range of the other 11 patients, without the patient with Tmax 2.5 h
  Tmax: 0.33 to 1.5 h
[1]; human, plasma, po, 1.5 mg m-2, t1/2 beta, after oral administration, the patient with the highest bioavailability of 45%
  half-life: 3.2 h
[1]; human, plasma, po, 1.5 mg m-2, t1/2 beta, mean, n=10
  half-life: 2.43 h
[1]; human, plasma, po, 1.5 mg m-2, t1/2 beta, range, n=10
  half-life: 1.02 to 3.2 h
[1]; human, plasma, po, 1.5 mg, mean of 12 patients, oral 1.5 mg m-2
  Cmax: 5.88 ng/mL
[1]; human, plasma, po, 1.5 mg, oral (individual patients), Table I, patients 1-12 in order, oral 1.5 mg m-2
  Cmax: 5.95 ng/mL
[1]; human, plasma, po, 1.5 mg, time to maximum plasma concentration (Tmax), median, oral 1.5 mg m-2, 12 patients
  Tmax: 0.78 h
[1]; human, plasma, po, 1.5 mg, time to maximum plasma concentration (Tmax), range, oral 1.5 mg m-2, 12 patients
  Tmax: 0.33 to 2.5 h
[1]; i.v. 1.5 mg m-2
  AUC(t), range: 32.50 to 73.68 ng/h/mL
  AUCoo, range: 43.70 to 81.08 ng/h/mL
[1]; mean (s.d. 7.7), oral drinking solution 1.5 mg m-2 day 1 vs 30 min i.v. infusion 1.5 mg m-2 day 2, 12 patients
  bioavailability (ratio of oral to i.v. AUC(t)): 30%
[1]; mean (s.d. 11.5), oral vs i.v. 1.5 mg m-2
  bioavailability if curves extrapolated to infinity (AUCoo): 32%
[1]; mean ± s.d., i.v. 1.5 mg m-2
  AUC(t): 49.87 ± 10.87 ng/h/mL
[1]; mean ± s.d., i.v. 1.5 mg m-2 30 min infusion, n=12
  total plasma clearance (Cl): 824+ 154 ml min-1
[1]; mean ± s.d., i.v. 1.5 mg m-2, extrapolated to infinity
  AUCoo: 61.02 ± 10.57 ng/h/mL
[1]; mean ± s.d., oral 1.5 mg m-2, up to latest measured time point
  AUC(t): 15.18 ± 5.51 ng/h/mL
[1]; oral 1.5 mg m-2
  AUC(t), range: 9.38 to 25.37 ng/h/mL
[1]; range over 12 patients, oral vs i.v. 1.5 mg m-2
  bioavailability (ratio of oral to i.v. AUC(t)), range: 21-45%
